Measured values from ChEMBL document CHEMBL1938230, “6-Position optimization of tricyclic 4-quinolone-based inhibitors of glycogen synthase kinase-3β: discovery of nitrile derivatives with picomolar potency” (Bioorg Med Chem Lett, 2012).

Key:
Type in all cases: cell-free
[1] = target: c-Jun N-terminal kinase, JNK (Homo sapiens) (UniProt P45983+P53779+P45984); experiment: Inhibition of human JNK1/JNK2/JNK3 in HL-60 cells lysate assessed as reduction of labeling of acyl-phosphate ATP probe at 100 nM
[2] = target: Dual specificity tyrosine-phosphorylation-regulated kinase 1B (Homo sapiens) (UniProt Q9Y463); experiment: Inhibition of human DYRK1B in HL-60 cells lysate assessed as reduction of labeling of acyl-phosphate ATP probe at 100 nM
[3] = target: T1, Phosphatidylinositol 4,5-bisphosphate 3-kinase catalytic subunit delta isoform (Homo sapiens) (UniProt O00329); experiment: Inhibition of human PIK3CD in HL-60 cells lysate assessed as reduction of labeling of acyl-phosphate ATP probe at 100 nM
T1 sequence (whole entry): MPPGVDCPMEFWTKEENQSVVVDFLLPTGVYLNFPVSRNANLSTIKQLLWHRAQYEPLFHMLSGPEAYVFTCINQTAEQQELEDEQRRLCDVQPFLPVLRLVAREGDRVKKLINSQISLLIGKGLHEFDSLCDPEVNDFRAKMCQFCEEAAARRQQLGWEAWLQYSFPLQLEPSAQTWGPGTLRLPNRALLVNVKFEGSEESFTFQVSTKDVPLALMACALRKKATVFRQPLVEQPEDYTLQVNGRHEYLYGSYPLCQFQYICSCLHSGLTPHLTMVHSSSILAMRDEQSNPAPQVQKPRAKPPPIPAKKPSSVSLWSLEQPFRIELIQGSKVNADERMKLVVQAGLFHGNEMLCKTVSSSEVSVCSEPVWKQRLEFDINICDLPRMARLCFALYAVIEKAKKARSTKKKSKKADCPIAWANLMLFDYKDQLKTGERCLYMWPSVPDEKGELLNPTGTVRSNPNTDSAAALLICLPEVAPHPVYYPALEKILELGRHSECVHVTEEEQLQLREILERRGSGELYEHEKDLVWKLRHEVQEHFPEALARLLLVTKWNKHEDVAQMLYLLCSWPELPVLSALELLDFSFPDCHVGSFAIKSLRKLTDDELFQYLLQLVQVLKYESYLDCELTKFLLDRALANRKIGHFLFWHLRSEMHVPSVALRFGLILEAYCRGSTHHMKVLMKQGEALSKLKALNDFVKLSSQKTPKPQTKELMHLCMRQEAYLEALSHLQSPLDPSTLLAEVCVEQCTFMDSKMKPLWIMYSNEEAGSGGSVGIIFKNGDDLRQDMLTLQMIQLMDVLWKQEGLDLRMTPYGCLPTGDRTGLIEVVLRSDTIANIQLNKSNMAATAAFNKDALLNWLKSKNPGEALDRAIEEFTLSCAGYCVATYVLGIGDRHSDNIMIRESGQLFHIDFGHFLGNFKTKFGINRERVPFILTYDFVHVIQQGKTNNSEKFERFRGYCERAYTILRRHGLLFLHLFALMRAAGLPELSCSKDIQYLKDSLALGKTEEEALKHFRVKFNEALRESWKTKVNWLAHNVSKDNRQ

[4] = target: Cyclin-dependent kinase 2 (Homo sapiens) (UniProt P24941); experiment: Inhibition of human CDK2 in HL-60 cells lysate assessed as reduction of labeling of acyl-phosphate ATP probe at 100 nM
[5] = target: Leucine-rich repeat serine/threonine-protein kinase 2 (Homo sapiens) (UniProt Q5S007); experiment: Inhibition of human LRRK2 in HL-60 cells lysate assessed as reduction of labeling of acyl-phosphate ATP probe at 100 nM
[6] = target: T2, Scaffold protein ILK (Homo sapiens) (UniProt Q13418); experiment: Inhibition of human ILK in HL-60 cells lysate assessed as reduction of labeling of acyl-phosphate ATP probe at 100 nM
T2 sequence (whole entry): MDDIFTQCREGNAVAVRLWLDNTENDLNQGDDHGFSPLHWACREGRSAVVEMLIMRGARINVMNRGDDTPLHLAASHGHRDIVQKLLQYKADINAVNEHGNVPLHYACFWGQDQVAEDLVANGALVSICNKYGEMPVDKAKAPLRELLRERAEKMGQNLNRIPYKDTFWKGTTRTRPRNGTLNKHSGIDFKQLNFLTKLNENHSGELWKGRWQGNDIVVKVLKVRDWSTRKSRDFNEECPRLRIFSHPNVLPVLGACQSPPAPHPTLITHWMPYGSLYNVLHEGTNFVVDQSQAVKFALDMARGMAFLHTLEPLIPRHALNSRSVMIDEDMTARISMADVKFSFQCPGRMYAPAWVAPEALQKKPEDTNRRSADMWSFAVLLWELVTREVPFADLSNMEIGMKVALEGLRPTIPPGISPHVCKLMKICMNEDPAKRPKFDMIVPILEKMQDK

[7] = target: T3, Serine/threonine-protein kinase Nek9 (Homo sapiens) (UniProt Q8TD19); experiment: Inhibition of human NEK9 in HL-60 cells lysate assessed as reduction of labeling of acyl-phosphate ATP probe at 100 nM
T3 sequence (whole entry): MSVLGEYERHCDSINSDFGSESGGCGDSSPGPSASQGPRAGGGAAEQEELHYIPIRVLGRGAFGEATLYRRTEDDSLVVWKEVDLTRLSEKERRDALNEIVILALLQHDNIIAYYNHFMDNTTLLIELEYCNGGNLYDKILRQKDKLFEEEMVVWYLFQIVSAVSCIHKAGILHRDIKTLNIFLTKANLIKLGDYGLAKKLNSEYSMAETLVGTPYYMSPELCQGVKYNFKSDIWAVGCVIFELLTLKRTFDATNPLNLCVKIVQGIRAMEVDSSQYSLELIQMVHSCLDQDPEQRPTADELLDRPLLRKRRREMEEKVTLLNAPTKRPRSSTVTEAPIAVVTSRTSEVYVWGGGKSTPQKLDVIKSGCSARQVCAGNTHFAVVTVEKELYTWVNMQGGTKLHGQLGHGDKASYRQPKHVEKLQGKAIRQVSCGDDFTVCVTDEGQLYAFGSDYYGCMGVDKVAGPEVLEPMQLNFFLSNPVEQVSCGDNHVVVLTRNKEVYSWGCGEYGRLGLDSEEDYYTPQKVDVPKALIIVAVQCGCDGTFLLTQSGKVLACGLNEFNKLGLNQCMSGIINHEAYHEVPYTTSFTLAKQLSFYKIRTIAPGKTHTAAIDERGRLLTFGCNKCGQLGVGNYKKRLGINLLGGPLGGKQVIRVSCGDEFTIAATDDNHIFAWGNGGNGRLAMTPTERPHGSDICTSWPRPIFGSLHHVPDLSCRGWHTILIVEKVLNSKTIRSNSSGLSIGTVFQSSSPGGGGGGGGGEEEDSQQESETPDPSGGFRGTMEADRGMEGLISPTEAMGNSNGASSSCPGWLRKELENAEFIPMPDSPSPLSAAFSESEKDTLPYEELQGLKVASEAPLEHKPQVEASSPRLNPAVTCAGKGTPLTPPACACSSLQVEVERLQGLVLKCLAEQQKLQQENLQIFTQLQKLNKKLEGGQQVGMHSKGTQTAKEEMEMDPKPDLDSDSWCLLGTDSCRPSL

Measured: inhibition

Chain of Leucine-rich repeat serine/threonine-protein kinase 2 (Homo sapiens) (Q5S007 whole entry): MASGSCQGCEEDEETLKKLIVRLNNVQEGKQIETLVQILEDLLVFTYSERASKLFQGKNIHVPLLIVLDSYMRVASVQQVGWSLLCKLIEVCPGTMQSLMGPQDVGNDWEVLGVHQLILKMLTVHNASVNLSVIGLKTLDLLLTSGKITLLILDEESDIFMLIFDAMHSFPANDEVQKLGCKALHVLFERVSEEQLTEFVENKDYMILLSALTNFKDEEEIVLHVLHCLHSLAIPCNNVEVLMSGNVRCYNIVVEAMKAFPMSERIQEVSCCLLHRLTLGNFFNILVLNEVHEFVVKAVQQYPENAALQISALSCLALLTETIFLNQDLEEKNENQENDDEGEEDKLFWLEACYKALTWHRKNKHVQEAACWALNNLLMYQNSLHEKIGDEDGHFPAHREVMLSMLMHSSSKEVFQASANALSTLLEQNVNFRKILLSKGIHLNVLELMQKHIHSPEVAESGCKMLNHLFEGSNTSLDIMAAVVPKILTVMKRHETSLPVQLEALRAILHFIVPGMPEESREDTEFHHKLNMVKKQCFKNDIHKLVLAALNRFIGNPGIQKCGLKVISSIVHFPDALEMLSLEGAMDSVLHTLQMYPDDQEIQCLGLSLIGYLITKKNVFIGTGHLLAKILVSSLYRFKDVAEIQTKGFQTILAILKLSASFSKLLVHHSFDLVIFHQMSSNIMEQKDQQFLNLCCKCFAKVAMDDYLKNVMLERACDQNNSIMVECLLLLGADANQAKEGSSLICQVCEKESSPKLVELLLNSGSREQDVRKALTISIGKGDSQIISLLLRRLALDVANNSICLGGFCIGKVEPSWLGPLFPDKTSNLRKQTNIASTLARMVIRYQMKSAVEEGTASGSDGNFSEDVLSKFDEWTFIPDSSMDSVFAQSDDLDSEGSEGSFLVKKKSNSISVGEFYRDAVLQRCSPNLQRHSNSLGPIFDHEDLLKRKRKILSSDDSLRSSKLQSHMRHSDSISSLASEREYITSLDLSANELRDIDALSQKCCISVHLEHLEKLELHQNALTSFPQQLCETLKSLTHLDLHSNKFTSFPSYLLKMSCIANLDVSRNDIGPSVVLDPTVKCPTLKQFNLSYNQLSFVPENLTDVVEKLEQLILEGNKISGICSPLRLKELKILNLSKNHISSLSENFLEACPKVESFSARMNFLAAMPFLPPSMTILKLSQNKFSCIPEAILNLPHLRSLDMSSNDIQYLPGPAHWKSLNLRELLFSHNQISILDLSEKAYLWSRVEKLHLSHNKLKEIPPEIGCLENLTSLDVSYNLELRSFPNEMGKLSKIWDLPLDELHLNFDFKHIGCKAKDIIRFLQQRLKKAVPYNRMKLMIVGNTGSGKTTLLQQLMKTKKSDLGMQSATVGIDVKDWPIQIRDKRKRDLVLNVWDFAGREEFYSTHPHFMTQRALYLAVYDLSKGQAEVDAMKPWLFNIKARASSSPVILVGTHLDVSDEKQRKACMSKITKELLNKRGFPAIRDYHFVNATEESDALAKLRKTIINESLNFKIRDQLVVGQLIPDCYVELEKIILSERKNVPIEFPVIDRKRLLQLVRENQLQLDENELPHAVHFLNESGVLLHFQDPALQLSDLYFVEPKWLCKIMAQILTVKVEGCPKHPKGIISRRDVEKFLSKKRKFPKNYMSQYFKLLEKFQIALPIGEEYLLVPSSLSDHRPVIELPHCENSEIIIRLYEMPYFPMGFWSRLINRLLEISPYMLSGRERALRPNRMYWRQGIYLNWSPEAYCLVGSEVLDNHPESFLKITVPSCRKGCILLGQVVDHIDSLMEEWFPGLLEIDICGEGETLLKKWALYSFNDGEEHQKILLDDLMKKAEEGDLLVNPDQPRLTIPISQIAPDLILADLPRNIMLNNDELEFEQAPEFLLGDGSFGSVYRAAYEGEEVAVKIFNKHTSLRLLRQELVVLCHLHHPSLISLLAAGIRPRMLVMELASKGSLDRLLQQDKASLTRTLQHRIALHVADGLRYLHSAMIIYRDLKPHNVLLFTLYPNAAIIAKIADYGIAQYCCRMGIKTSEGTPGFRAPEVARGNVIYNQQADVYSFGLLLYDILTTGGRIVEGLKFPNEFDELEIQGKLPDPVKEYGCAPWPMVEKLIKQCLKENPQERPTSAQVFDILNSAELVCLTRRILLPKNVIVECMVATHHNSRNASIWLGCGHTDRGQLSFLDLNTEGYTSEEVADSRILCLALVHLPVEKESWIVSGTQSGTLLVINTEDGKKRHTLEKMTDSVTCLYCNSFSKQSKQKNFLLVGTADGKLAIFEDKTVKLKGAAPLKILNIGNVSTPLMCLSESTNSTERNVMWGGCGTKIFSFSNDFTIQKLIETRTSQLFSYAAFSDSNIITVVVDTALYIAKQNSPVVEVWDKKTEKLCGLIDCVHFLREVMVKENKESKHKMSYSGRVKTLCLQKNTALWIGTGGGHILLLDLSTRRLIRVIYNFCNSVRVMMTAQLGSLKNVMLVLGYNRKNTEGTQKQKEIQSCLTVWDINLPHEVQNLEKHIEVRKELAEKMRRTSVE
Chain of Dual specificity tyrosine-phosphorylation-regulated kinase 1B (Homo sapiens) (Q9Y463 whole entry, looked up, canonical isoform): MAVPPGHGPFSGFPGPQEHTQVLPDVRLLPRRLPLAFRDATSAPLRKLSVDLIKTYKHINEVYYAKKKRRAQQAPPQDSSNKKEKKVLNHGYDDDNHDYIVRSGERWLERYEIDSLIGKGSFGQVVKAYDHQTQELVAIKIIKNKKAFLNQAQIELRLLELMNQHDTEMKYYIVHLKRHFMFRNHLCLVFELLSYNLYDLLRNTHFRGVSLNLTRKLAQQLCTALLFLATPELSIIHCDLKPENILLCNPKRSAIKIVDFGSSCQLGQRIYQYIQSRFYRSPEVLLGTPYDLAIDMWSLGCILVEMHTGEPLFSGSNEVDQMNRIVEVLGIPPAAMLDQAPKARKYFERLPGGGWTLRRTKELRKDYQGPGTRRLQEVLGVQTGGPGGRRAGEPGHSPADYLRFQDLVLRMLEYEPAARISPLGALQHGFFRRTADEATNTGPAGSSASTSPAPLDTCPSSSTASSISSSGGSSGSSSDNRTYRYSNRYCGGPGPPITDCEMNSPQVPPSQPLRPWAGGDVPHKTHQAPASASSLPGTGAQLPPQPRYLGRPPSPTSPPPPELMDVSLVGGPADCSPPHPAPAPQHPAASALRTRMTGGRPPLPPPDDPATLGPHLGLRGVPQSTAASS

C[C@H]1COc2c(NCCCc3ccccn3)c(F)c(N)c3c(=O)c(C#N)cn1c23
< 35%: all assays above

C[C@H]1COc2c(NCCCc3ccccn3)c(F)c(N)c3c(=O)c(C(=O)O)cn1c23
< 35%: all assays above

C[C@H]1COc2c(NCCCn3cccn3)c(F)c(N)c3c(=O)c(C(=O)O)cn1c23
< 35%: all assays above

C[C@H]1COc2c(NCCCn3cccn3)c(F)c(N)c3c(=O)c(C#N)cn1c23
< 35%: all assays above
